For data set [1], the target named is Fibroblast growth factor receptor 2 (Homo sapiens, UniProt P21802).
Description: Inhibition of human recombinant cytoplasmic domain FGFR2 (8 to 134 residues) incubated for 120 mins by mobility shift assay
Data set [2] deals with Epidermal growth factor receptor (Homo sapiens, UniProt P00533, EX19DEL/T790M). Nature of the data set: Inhibition of recombinant human EGFR del19/T790M using biotinEEPLYWSFPAKKK-NH2 as substrate incubated for 120 mins by TR-FRET assay. In general terms: TR-FRET usually uses a lanthanide donor and a delayed reading to cut background.
In data set [3] the target is Vascular endothelial growth factor receptor 2 (Homo sapiens, UniProt P35968).
Description: Inhibition of N-terminal GST tagged recombinant human VEGFR2 (aa805 to 1356 residues) expressed in baculovirus expression system using Poly- (Glu4:Tyr)-biotin as substrate incubated for 80 mins in presence of ATP by kinase glo method
A further data set deals with SNU-16. The experiment in a line: cells. The note with it: Homo sapiens, SNU-16, 72 h.
For a further data set, the system named is SNU1. Nature of the data set: cells. The note with it: Homo sapiens, SNU1, 72 h.
Data set [4] can be described thus: Microsomal stability in human liver microsomes assessed as parent compound remaining measured after 30 mins in presence of NADPH generating system by LC-MS analysis. The class given is ADME, Microsome. The note with it: read-out: Stability. In general terms: Liver microsomes are vesicles of endoplasmic reticulum, rich in cytochrome P450 enzymes.
A short description of data set [5]: Microsomal stability in mouse liver microsomes assessed as parent compound remaining measured after 30 mins in presence of NADPH generating system by LC-MS analysis. It is filed as ADME, Microsome. The following applies: read-out: Stability.
Data set [6] in a line: Drug exposure in BALB/cA mouse assessed as AUC(0 to 6 hrs) of drug at 50 mg/kg, po measured after 6 hrs by LC-MS analysis. It is filed as ADME, organism-based. Set-up: dose 50 mg/kg, time 6 hrs, route po. The note with it: in vivo.
Data set [7] in a line: Lipophilicity, logD of the compound at pH 7.4. The class given is physicochemical. The note with it: buffer.
Data set [8] concerns the target Fibroblast growth factor receptor 1 (Homo sapiens) (UniProt P11362). The experiment in a line: Inhibition of partial length wild type human FGFR1 (P357 to V669 residues) expressed in bacterial expression system at 100 uM by Kinome scan method relative to control.
The target of data set [9] is Fibroblast growth factor receptor 3 (Homo sapiens) (UniProt P22607). The experiment in a line: Inhibition of wild type human partial length FGFR3 (R442 to S771 residues) expressed in bacterial expression system at 100 uM by Kinome scan method relative to control.
Data set [10] deals with T1, Mitogen-activated protein kinase 12 (Homo sapiens) (UniProt P53778).
T1 sequence (whole entry): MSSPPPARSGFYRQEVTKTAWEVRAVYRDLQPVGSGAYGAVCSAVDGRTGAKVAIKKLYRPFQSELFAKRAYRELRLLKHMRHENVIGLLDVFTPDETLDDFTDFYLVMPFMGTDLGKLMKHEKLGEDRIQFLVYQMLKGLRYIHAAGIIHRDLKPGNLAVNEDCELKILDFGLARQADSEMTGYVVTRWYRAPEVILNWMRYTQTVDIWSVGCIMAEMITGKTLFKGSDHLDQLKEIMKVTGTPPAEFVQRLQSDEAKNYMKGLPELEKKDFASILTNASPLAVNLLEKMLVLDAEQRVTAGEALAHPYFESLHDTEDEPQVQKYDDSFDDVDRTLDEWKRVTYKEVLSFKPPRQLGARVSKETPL
Nature of the data set: Inhibition of human full length wild type MAPK12 (M1 to L367 residues) expressed in mammalian expression system at 100 uM by Kinome scan method relative to control.

Data set [11] addresses Insulin receptor (Homo sapiens) (UniProt P06213). The experiment in a line: Inhibition of human wild type partial length INSR (P997 to E1318 resides) expressed in mammalian expression system at 100 uM by Kinome scan method relative to control.

This is an account of results in ChEMBL document CHEMBL5252660 (ACS Med Chem Lett, 2023).

pIC50: −log10 of the molar value.

Chain of Epidermal growth factor receptor (P00533 whole entry, looked up, stated change not applied): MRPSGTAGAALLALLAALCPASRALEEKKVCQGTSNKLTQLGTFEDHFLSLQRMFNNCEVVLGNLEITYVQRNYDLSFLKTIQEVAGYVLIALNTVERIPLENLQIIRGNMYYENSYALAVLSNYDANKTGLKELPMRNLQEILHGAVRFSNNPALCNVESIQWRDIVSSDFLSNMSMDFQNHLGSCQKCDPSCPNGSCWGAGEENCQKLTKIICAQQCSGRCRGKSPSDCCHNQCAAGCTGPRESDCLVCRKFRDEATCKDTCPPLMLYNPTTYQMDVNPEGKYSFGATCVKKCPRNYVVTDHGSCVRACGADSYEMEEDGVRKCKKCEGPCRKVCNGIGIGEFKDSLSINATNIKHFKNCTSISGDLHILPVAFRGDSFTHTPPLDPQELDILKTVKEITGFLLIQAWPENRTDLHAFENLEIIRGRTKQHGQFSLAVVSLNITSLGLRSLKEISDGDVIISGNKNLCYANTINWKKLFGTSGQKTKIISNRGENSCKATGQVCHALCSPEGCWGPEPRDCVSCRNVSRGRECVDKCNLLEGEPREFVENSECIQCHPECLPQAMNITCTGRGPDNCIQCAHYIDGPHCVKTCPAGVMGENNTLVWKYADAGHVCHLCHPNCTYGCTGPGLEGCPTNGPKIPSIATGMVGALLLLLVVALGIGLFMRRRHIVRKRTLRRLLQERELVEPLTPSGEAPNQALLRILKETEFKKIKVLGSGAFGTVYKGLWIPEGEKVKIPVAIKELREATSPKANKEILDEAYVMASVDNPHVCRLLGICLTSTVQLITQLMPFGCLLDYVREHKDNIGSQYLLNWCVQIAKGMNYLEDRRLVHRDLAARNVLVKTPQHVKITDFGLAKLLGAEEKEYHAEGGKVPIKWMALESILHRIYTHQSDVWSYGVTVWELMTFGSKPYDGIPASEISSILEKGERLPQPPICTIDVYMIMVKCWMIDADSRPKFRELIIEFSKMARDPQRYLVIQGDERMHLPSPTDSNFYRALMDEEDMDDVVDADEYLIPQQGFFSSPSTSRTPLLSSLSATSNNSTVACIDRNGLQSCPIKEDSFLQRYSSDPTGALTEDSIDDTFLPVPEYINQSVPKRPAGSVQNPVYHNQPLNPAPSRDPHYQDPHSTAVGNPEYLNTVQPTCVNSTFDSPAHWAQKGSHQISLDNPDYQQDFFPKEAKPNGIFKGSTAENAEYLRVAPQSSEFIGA
Chain of Fibroblast growth factor receptor 2 (P21802 whole entry): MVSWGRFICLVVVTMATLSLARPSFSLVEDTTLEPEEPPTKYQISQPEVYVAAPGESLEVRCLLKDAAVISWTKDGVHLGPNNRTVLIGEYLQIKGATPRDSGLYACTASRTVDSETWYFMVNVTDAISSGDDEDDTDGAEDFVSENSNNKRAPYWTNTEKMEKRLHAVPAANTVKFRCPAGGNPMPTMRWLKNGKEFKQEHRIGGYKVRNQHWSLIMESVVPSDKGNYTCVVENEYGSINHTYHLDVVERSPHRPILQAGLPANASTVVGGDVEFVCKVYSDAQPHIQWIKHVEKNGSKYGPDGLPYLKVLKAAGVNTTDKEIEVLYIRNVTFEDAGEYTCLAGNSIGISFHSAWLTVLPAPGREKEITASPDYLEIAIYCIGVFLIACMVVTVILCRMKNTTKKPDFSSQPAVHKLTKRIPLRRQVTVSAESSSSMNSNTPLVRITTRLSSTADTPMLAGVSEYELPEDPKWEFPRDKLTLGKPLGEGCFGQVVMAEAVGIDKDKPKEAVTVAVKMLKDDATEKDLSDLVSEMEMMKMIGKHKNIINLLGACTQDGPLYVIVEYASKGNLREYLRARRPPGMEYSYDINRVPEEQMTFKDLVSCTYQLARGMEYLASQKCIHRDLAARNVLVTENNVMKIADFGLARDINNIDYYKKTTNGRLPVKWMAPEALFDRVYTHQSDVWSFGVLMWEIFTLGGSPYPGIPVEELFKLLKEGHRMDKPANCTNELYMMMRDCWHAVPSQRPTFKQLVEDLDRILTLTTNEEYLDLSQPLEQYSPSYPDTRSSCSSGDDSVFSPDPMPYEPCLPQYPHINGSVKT
Chain of Vascular endothelial growth factor receptor 2 (P35968 whole entry): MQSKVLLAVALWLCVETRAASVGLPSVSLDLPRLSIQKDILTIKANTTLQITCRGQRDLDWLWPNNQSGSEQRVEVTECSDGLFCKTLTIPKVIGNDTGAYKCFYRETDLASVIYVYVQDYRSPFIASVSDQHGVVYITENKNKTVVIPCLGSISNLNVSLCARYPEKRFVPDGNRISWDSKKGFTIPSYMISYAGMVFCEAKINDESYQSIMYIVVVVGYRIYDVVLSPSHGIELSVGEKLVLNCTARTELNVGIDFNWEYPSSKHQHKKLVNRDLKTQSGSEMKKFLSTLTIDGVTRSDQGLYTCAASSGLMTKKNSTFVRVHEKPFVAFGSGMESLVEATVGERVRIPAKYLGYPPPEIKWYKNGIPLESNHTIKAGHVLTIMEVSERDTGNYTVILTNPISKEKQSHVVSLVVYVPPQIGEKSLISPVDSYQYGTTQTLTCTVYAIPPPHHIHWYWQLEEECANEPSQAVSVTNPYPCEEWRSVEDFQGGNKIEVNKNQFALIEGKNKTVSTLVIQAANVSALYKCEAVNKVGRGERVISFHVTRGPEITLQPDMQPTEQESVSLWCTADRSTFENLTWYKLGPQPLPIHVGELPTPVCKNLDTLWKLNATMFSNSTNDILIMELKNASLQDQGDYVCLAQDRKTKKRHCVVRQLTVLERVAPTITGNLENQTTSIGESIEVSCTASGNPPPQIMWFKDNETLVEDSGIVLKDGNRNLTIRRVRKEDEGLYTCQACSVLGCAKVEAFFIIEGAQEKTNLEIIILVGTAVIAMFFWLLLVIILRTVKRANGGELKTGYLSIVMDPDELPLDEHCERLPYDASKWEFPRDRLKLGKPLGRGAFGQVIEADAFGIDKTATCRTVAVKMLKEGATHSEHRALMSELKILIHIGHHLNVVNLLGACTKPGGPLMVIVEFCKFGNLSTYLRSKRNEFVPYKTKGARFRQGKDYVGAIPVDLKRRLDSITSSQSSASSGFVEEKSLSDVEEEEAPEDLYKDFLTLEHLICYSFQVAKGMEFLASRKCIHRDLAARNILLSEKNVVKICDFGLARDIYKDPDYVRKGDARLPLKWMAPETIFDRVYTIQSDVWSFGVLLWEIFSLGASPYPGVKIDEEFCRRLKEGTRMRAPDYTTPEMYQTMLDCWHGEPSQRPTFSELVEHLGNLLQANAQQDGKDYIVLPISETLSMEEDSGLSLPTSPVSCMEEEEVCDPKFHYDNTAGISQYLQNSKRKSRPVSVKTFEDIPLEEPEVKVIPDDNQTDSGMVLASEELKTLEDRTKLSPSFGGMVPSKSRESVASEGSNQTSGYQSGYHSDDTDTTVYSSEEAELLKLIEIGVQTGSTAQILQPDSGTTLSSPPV
Chain of Insulin receptor (Homo sapiens) (P06213 28-758 limits assumed): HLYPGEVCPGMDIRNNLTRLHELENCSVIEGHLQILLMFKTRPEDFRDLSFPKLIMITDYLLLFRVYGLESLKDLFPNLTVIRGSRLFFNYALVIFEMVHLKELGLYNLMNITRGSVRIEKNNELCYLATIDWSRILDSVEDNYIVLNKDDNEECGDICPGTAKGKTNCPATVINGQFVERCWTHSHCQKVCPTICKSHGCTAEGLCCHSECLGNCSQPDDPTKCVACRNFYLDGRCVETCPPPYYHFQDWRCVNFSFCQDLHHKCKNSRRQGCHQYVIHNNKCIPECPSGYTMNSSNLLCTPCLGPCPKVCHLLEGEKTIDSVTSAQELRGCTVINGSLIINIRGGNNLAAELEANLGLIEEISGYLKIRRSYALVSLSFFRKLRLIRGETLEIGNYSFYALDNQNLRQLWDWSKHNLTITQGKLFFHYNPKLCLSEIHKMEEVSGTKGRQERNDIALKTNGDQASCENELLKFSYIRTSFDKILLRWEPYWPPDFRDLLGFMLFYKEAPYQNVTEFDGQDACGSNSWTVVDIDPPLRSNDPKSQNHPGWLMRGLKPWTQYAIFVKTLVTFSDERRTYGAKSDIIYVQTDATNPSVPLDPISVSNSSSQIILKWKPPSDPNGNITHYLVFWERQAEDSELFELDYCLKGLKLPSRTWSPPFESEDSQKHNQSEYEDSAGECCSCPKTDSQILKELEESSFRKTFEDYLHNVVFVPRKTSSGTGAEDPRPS
Chain of Insulin receptor (Homo sapiens) (P06213 763-1382 limits assumed): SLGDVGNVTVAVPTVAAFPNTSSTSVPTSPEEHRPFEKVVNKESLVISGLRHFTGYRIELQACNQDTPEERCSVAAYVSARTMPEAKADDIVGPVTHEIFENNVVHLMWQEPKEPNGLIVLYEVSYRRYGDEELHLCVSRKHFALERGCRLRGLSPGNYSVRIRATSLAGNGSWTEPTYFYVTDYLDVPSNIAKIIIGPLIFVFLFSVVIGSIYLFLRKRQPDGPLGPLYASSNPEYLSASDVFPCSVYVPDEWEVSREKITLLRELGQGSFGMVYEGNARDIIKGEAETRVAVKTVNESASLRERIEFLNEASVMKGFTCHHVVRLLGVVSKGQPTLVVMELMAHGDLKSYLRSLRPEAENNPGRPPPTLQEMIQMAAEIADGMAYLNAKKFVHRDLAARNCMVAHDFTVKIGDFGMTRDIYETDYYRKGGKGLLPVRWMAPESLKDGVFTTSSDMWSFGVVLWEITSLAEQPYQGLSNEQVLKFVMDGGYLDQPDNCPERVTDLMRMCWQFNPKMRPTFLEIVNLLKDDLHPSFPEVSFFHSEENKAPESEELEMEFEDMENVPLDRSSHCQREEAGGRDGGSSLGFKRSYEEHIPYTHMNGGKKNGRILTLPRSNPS
Description for SNU-16: Cytotoxicity against human SNU-16 cells assessed as inhibition of cell growth measured after 72 hrs by cell titer glo assay
Description for SNU1: Cytotoxicity against human SNU1 cells assessed as inhibition of cell growth measured after 72 hrs by cell titer glo assay

For orientation: pIC50 means −log10 of the IC50, conventionally taken in molar units. As to `C=CC(=O)N1CC[C@H](n2nc(-c3cnc4ccccc4c3)c3c(N)ncnc32)C1`, the results for the negative logarithm of the IC50 (pIC50) in data set [1] and in data set [2] were 6.59 and 6.13, respectively.

In the case of `C=CC(=O)N1CC[C@@H](n2nc(C#Cc3cc(OC)cc(OC)c3)c3c(N)ncnc32)C1`, the pIC50 in data set [3] is 5.83; in the data set with SNU-16, 6.95; in the data set with SNU1 it was below 5.30.

On to `C=CC(=O)N1CC(Cn2nc(C#Cc3cc(OC)cc(OC)c3)c3c(N)ncnc32)C1`, for which the values for the pIC50 in the data set with SNU-16 and in the data set on SNU1 were 7.49 and below 5.30, respectively.

A word on the AUC(0-t): it is the area under the concentration-time curve up to a stated or last time point. In general, logD refers to the decadic logarithm of the distribution of all forms, ionised or not, between an organic phase and buffer at a given pH. Low readings indicate lower lipophilicity, high ones higher lipophilicity. For the compound `C=CC(=O)N1CC(n2nc(C#Cc3cc(OC)cc(OC)c3)c3c(N)ncnc32)C1`, the remaining at 0.5 h in data set [4] was determined as 83%; in data set [5] it was 92%. Moreover, the AUC(0-t) at 6 h in data set [6] was determined as 0.07 µM·h. The same compound registered a logD in data set [7] of 3. In addition, the pIC50 is 8.13 in the data set with SNU-16 and below 5.30 with SNU1.

On to `CCC(=O)N1CC[C@H](n2nc(C#Cc3cc(OC)cc(OC)c3)c3c(N)ncnc32)C1`, for which the pIC50 was below 5.30 in data set [2], 5.85 in the data set with SNU-16 and below 5.30 in the data set with SNU1.

With `COc1cc(C#Cc2nn(C3CN(C(=O)/C=C/CN(C)C)C3)c3ncnc(N)c23)cc(OC)c1`, the values for the remaining at 0.5 h in data set [4] and in data set [5] were 77% and 98%, respectively. For the same compound, in data set [6], the area under the curve AUC(0-t) at 6 h was 1.27 µM·h. Moreover, in [7], the log distribution coefficient (logD) turned out to be 2.3. Moreover, the pIC50 was 8.08 in the data set with SNU-16 and below 5.30 in the data set on SNU1.

What is called inhibition is how much of the control response was suppressed. A lower inhibition goes with little suppression. As for `C=CC(=O)N1CC[C@H](n2nc(C#Cc3cc(OC)cc(OC)c3)c3c(N)ncnc32)C1` [FUTIBATINIB], the pIC50 in data set [2] is below 5.30; in data set [3], 5.63; in the data set with SNU-16 it was 8.43; in the data set on SNU1, below 5.30. Further, the figures for the remaining at 0.5 h in data set [4] and in [5] were 66% and 69%, respectively. In addition, the AUC(0-t) at 6 h in data set [6] was 23.9 µM·h. This compound yielded a logD in data set [7] of 3.4. The inhibition in data set [8] amounted to 99.1%; in [9] it was 97.8%; in [10], 69%; in [11], 55%.

Turning to `C=CC(=O)N1CC[C@H](n2cc(-c3cnc4ccccc4c3)c3c(N)ncnc32)C1`, the pIC50 in data set [1] was 7.77; in [2], 6.95.

Consider `C=CC(=O)N1CC[C@H](n2nc(-c3cc(OC)cc(OC)c3)c3c(N)ncnc32)C1`, for which the pIC50 in data set [2] was below 5.30.

With `C=CC(=O)N1CCC(n2cc(-c3cnc4ccccc4c3)c3c(N)ncnc32)C1` (racemic), the pIC50 in data set [1] was 7.24; in [2] it was 8.92.

As for `COc1cc(C#Cc2nn([C@H]3CCN(C(=O)/C=C/CN(C)C)C3)c3ncnc(N)c23)cc(OC)c1`, the pIC50 in the data set with SNU-16 was 7.37; in the data set on SNU1, below 5.30.

Turning to `C=CC(=O)N1CC[C@H](n2nc(C(=O)Nc3cc(OC)cc(OC)c3)c3c(N)ncnc32)C1`, the pIC50 in [1] was 6.17; in data set [2], below 5.30.

`C=CC(=O)N1CC[C@@H](n2nc(-c3cnc4ccccc4c3)c3c(N)ncnc32)C1`: the pIC50 in data set [1] was 5.65; in [2], 8.27.

Consider `C=CC(=O)N1CCC(n2nc(C#Cc3cc(OC)cc(OC)c3)c3c(N)ncnc32)CC1`, for which the pIC50 with SNU-16 was 7.48; in the data set with SNU1, below 5.30.

Consider `C=CC(=O)N1CC[C@@H](n2cc(-c3cnc4ccccc4c3)c3c(N)ncnc32)C1`, for which the pIC50 in [1] is 6.50; in [2], 9.40.

As for `C=CC(=O)NCCn1nc(C#Cc2cc(OC)cc(OC)c2)c2c(N)ncnc21`, the pIC50 is 6.44 with SNU-16 and below 5.30 in the data set with SNU1.

For the compound `C=CC(=O)N1CC[C@H](n2nc(CCc3cc(OC)cc(OC)c3)c3c(N)ncnc32)C1`, the figures for the pIC50 in data set [1] and in data set [2] were 6.62 and below 5.30, respectively.
